From patent US20200109126A1 (priority 2017, published 2020)
Where two headings read alike, the source gives them in different places.

Legend:
hMOR = hMOR (Homo sapiens, UniProt P35372); assay: Receptor binding with [3H]diprenorphine at hMOR
hKOR = hKOR (Homo sapiens, UniProt P41145); assay: Receptor binding with [3H]diprenorphine at hKOR
humanDOR = humanDOR (Homo sapiens, UniProt P41143); assay: Receptor binding with [3H]diprenorphine at human DOR
[1] = PZM analogs, (n) = number of independent experiments, read-out: binding affinity Ki hMOR
[2] = PZM analogs, (n) = number of independent experiments, read-out: binding affinity Ki hKOR
[3] = PZM analogs, (n) = number of independent experiments, read-out: binding affinity Ki hDOR
[4] = ± SD (two experiments) or SEM, (n) experiments, read-out: hKOR [3H]dyprenorphine Ki
[5] = ± SD (two experiments) or SEM, (n) experiments, read-out: humanDOR [3H]dyprenorphine Ki
[6] = ± SD (two experiments) or SEM, (n) experiments, read-out: hMOR [3H]dyprenorphine Ki

Chain of hMOR (P35372 whole entry): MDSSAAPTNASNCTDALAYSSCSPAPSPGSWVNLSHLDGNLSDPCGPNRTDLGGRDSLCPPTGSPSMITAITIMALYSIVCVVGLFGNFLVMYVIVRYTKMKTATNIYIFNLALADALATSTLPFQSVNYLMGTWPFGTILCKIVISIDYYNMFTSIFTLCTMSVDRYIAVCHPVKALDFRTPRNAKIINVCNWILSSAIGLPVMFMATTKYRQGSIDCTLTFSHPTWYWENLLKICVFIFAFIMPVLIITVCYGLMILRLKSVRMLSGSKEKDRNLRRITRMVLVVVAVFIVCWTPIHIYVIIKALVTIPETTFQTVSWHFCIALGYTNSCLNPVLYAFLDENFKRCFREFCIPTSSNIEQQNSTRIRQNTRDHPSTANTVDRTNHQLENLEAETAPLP
Chain of humanDOR (P41143 whole entry): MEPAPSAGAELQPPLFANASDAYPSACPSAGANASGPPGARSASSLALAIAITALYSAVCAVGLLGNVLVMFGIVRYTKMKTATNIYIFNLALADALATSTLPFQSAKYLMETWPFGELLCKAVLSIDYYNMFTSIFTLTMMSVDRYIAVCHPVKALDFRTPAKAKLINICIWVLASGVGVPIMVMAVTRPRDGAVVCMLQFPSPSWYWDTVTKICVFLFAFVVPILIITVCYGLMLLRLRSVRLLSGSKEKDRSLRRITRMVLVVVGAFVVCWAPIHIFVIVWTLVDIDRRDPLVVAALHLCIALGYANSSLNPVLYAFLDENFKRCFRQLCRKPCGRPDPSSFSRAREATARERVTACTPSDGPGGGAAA
Chain of hKOR (P41145 whole entry): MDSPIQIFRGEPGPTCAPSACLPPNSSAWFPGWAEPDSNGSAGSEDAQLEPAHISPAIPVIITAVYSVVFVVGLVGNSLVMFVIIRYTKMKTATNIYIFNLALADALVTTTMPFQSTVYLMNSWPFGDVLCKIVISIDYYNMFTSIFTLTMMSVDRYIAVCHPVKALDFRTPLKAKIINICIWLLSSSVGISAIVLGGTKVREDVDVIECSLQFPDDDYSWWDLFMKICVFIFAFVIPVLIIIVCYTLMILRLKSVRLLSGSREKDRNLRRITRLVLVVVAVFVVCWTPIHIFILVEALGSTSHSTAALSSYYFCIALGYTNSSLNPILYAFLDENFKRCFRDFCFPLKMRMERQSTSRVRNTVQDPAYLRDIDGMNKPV

| Compound | Ki (hMOR; [1]) [nM] | Ki (hKOR; [2]) [nM] | Ki (humanDOR; [3]) [nM] | other results |
| --- | --- | --- | --- | --- |
| CN(C)C(CNC(=O)NCCc1ccc(F)cc1)Cc1ccc(O)cc1 (stereo not drawn) | 27 | 190 | 250 | – |
| O=C(NCCc1ccccc1)NC[C@H](Cc1ccc(O)cc1)N1CCCC1 | 660 | 770 | 1500 | – |
| CN(C)[C@H](CNC(=O)NCCN1C(=O)C2C3C=CC(O3)C2C1=O)Cc1ccc(O)cc1 (stereo partly drawn) | – | – | – | Ki (hMOR): 2300 nM; Ki (hKOR): 8200 nM; Ki (humanDOR): 36000 nM |
| CC(Cc1csc2ccccc12)NC(=O)NC[C@H](Cc1ccc(O)cc1)N(C)C (mixture of isomers) | 14 | 19 | – | – |
| C[C@H](NC(=O)NC[C@H](Cc1ccc(O)cc1)N(C)C)c1ccccc1 (single isomer, unassigned) | 38 | 35 | 590 | – |
| CC(Cc1ccsc1)NC(=O)NCC(Cc1ccc(O)cc1)N(C)C (single isomer, unassigned) [BD 122DR] | – | – | – | Ki (hKOR; [4]): 3100 nM; Ki (humanDOR; [5]): 4100 nM |
| CC(Cc1ccsc1)NC(=O)NCC(Cc1ccc(O)cc1)N(C)C (single isomer, unassigned) [BD 122DS] | – | – | – | Ki (hKOR; [4]): 2300 nM; Ki (humanDOR; [5]): 4800 nM |
| CC(Cc1ccsc1)NC(=O)NCC(Cc1ccccc1)N(C)C (single isomer, unassigned) [BD 127DR] | – | – | – | Ki (hKOR; [4]): 5000 nM; Ki (humanDOR; [5]): 12000 nM |
| CC(Cc1ccsc1)NC(=O)NCC(Cc1ccccc1)N(C)C (single isomer, unassigned) [BD 127DS] | – | – | – | Ki (hKOR; [4]): 3100 nM; Ki (humanDOR; [5]): 11000 nM |
| CC(Cc1ccsc1)NC(=O)NCC(Cc1ccccc1)N(C)C (single isomer, unassigned) [BD 127LR] | – | – | – | Ki (hKOR; [4]): 1300 nM; Ki (humanDOR; [5]): 1800 nM |
| C[C@@H](Cc1ccsc1)NC(=O)NC[C@H](Cc1ccccc1)N(C)C [BD 127LS] | – | – | – | Ki (hKOR; [4]): 1000 nM; Ki (humanDOR; [5]): 2800 nM |
| CN(C)[C@H](CNC(=O)NC(C)(C)Cc1ccsc1)Cc1cccc(O)c1 [DD 46L, (S)-1-(2-(dimethylamino)-3-(3-hydroxyphenyl)propyl)-3-(2-methyl-1-(thiophen-3-yl)propan-2-yl)urea] | – | – | – | Ki (hMOR; [6]): 25 nM; Ki (hKOR; [4]): 32 nM; Ki (humanDOR; [5]): 190 nM |
| C[C@H](NC(=O)NC[C@H](Cc1ccc(O)cc1)N(C)C)c1cccc2ccccc12 [DD 50LS, 1-((S)-2-(dimethylamino)-3-(4-hydroxyphenyl)propyl)-3-((S)-1-(naphthalen-1-yl)ethyl)urea] | – | – | – | Ki (hMOR; [6]): 84 nM; Ki (hKOR; [4]): 71 nM; Ki (humanDOR; [5]): 570 nM |
| Cc1ccc([C@H](C)NC(=O)NC[C@H](Cc2ccc(O)cc2)N(C)C)cc1 [DD 51LS, 1-((S)-2-(dimethylamino)-3-(4-hydroxyphenyl)propyl)-3-((S)-1-(p-tolyl)ethyl)urea] | – | – | – | Ki (hMOR): 150 nM; Ki (hKOR): 180 nM; Ki (humanDOR): 700 nM |
| C[C@H](Cc1ccccc1)NC(=O)NC[C@H](Cc1ccc(O)cc1)N(C)C [DD 61L-A, 1-((S)-2-(dimethylamino)-3-(4-hydroxyphenyl)propyl)-3-((R)-1-phenylpropan-2-yl)urea] | – | – | – | Ki (hMOR; [6]): 81 nM; Ki (hKOR; [4]): 67 nM; Ki (humanDOR; [5]): 91 nM |
| C[C@H](Cc1ccsc1)NC(=O)NC[C@@H](Cc1ccccc1)N(C)C [drawing 489] | – | 5000 | 12000 | – |

| Compound | Ki (hMOR; [1]) [nM] | Ki (hKOR; [2]) [nM] | Ki (humanDOR; [3]) [nM] | other results |
| --- | --- | --- | --- | --- |
| C[C@@H](Cc1ccsc1)NC(=O)NC[C@H](Cc1ccccc1)N(C)C [drawing 492] | – | 1000 | 2800 | – |
| CN(C)[C@H](CNC(=O)NCCc1ccsc1)Cc1ccc(O)cc1 [drawing 500] | 43 | 150 | 330 | – |
| CN(C)[C@H](CNC(=S)NCCc1ccsc1)Cc1ccc(O)cc1 [drawing 501] | 29 | 86 | 70 | – |
| CN(C[C@H](Cc1ccc(O)cc1)N(C)C)C(=O)NCCc1ccccc1 [drawing 503] | 610 | 340 | 1700 | – |
| CN(CCc1ccccc1)C(=O)NC[C@H](Cc1ccc(O)cc1)N(C)C [drawing 504] | 320 | 160 | 1200 | – |
| CN(CCc1ccccc1)C(=O)N(C)C[C@H](Cc1ccc(O)cc1)N(C)C [drawing 505] | 490 | 220 | 4200 | – |
| CN(CC1CC1)[C@H](CNC(=O)NCCc1ccccc1)Cc1ccc(O)cc1 [drawing 507] | 760 | – | – | – |
| C[C@@H](Cc1ccsc1)NC(=O)NC[C@H](Cc1ccc(O)cc1)N(C)C [drawing 512] | – | 18 | 1000 | – |
| CN(C)[C@H](CNC(=O)NCCc1ccccc1)Cc1ccc(O)cc1 [drawing 514] | 47 | 45 | 250 | – |
| C[C@H](Cc1ccccc1)NC(=O)NC[C@H](Cc1ccc(O)cc1)N(C)C [drawing 516] | 81 | 67 | 91 | – |
| C[C@@H](Cc1ccccc1)NC(=O)NC[C@H](Cc1ccc(O)cc1)N(C)C [drawing 517] | 42 | 37 | 360 | – |
| C[C@@H](Cc1csc2ccccc12)NC(=O)NC[C@H](Cc1ccc(O)cc1)N(C)C [drawing 521] | 8.3 | 22 | 110 | – |
| Cc1ccc([C@H](C)NC(=O)NC[C@H](Cc2ccc(O)cc2)N(C)C)cc1 [drawing 523] | 150 | 180 | 700 | – |
| C[C@H](NC(=O)NC[C@H](Cc1ccc(O)cc1)N(C)C)c1cccc2ccccc12 [drawing 524] | 85 | 74 | 540 | – |
| CN(C)[C@H](CNC(=O)NC1Cc2ccccc2C1)Cc1ccc(O)cc1 [drawing 526] | 7.7 | 51 | 56 | – |
